The source made the active and inactive calls. No cut-off for these calls is given here.
Tests used:
[1] = biological target: T1, Muscarinic acetylcholine receptor M5 (Homo sapiens) (UniProt P08912); experiment: Positive allosteric modulation of human muscarinic acetylcholine receptor M5 expressed in CHO cells; format: functional, cell-based
T1 sequence (whole entry): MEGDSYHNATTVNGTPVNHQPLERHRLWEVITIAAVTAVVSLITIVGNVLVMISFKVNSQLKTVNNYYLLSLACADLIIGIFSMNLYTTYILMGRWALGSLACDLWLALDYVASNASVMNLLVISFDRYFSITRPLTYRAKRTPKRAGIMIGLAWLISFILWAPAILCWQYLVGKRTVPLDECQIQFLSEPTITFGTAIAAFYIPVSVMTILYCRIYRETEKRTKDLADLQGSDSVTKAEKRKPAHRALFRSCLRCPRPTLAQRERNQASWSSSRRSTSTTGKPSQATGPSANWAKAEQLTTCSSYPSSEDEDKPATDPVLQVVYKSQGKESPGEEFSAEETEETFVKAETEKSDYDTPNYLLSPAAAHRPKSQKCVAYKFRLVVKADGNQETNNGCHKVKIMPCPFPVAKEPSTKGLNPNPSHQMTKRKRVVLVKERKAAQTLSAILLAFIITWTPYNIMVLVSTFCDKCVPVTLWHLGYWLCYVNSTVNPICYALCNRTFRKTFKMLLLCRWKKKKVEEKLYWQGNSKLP

Mus musculus = experiment: Antialzheimer activity in mouse assessed as reversal of scopolamine-induced emotional memory deficits by measuring increase in freezing at 3 mg/kg, ip measured after 24 hrs by contextual fear conditioning assay; format: functional, organism-based

Cc1ccc(Cc2cc3c(=O)n([C@H]4CCCC[C@@H]4O)cnc3c3ccccc23)cn1
Activity [1]: inactive | Activity (Mus musculus): Active
